Several values for one entry are separate records, joined by “and”; a condition that tells them apart may be missing. Identical values can stand only once.
Experiments:
[1] = test system: dog undergoing TPLO, femoral and sciatic nerves; assay: TPLO in a single dog after perineural RTX (Example A); type: in vivo
Experimental: A TPLO (Tibial Plateau Osteotomy) was performed on a single dog. Before surgery, 25 μg RTX was administered perineurally to the femoral and sciatic nerves. The procedure included cutting the bone in the leg, changing the angle of the knee articulation, screwing in a plate, and resewing muscle that was cut to access the knee.
After waking up, all of the dog's motor functions were preserved. […] The dog was able to put the affected leg down from time to time when ambulating but, as would be expected, the leg was not fully weight-bearing.

[2] = RTX plasma concentrations after nerve block or local application; type: in vivo, dog; parameters: Plasma concentration: unit not given here
Experimental: Fourteen adult female beagle dogs, weighing 11.9±0.6 kg and between 3-5 years of age, were enrolled in this study. Each animal was randomly assigned to one of four groups. Four dogs (group 1) received a femoral and sciatic nerve block with 12.5 μg RTX per nerve (25 μg RTX total) diluted with sterile saline for a total volume of 2 mL (half volume per block). Another four dogs (group 2) received a femoral and a sciatic nerve block with 3.12 μg RTX per nerve block (6.25 μg RTX total) diluted with sterile saline for a total volume of 2 mL (half volume per block). Group 3 (4 animals) received a femoral and sciatic nerve block with 5 mg bupivacaine total (standard of care) plus a total of 50 μg RTX (total volume of 4 mL, concentration 12.5 μg/mL) applied locally to the cut on the tibia for 10 min. Group 4 (2 animals) was the control group and received a femoral and a sciatic nerve block with 5 mg bupivacaine total (standard of care).
Blood (4-5 mL) was collected at the beginning of the study for complete blood count and chemistry parameters. Another 2 mL sample was collected at time 0 (baseline), 5, 15, 45, 60, and 90 minutes, and at 2, 3, 4, 6, and 8 hours after RTX administration for pharmacokinetic analysis to determine how plasma levels of RTX change over time. Dog plasma samples were extracted using an organic solvent mixture, dried under nitrogen, reconstituted and analyzed by reversed-phase HPLC. The mobile phase was nebulized using heated nitrogen in a Z-spray source/interface set to electrospray positive ionization mode. The ionized compounds are detected using tandem mass spectrometry or MS/MS.
RTX Plasma concentrations (pg/mL) were measured in the dogs following administration of RTX solution as femoral and sciatic nerve blocks.

[3] = 25 μg RTX perineurally before surgery

C=C(C)[C@]12C[C@@H](C)[C@@]34O[C@](Cc5ccccc5)(O[C@@H]1[C@@H]3C=C(COC(=O)Cc1ccc(O)c(OC)c1)C[C@]1(O)C(=O)C(C)=C[C@@H]41)O2 [RTX, resiniferatoxin]
Additional pain medications when the dog woke up [1, 3]: No additional pain medications
Motor functions after waking up [1, 3]: preserved
Need to deepen the general anesthesia during cutting of the bone [1, 3]: no need to deepen the general anesthesia
Need to increase the opioid dose for the last part of the surgery [1, 3]: no need to increase the opioid dose
Pain at manipulation, inflammation, and swelling (standardized veterinary post-surgical pain scale) [1, 3]: lower than expected
Time until the dog was up and walking [1, 3]: Within a couple of hours
Reaction of the dog during cutting of the bone ([1]; 25 μg RTX perineurally to femoral and sciatic nerves before surgery): no reaction
Plasma concentrations for RTX ([2]; Group 1 High Dose, 25 μg total F/Sc nerve block, 45 min, dogs 0271, 2968, 3837, 5635 in c3-c6): BQL (BQL—Below the Quantifiable Limit < 50.0 pg/mL)
Plasma concentrations for RTX ([2]; Group 1 High Dose, 25 μg total F/Sc nerve block, 60 min, dogs 0271, 2968, 3837, 5635 in c3-c6): BQL (BQL—Below the Quantifiable Limit < 50.0 pg/mL)
Plasma concentrations for RTX ([2]; Group 1 High Dose, 25 μg total F/Sc nerve block, 6 h, dogs 0271, 2968, 3837, 5635 in c3-c6): 0.0941 ng/mL and 0.182 ng/mL and 0.13 ng/mL
Plasma concentrations for RTX ([2]; Group 1 High Dose, 25 μg total F/Sc nerve block, 8 h, dogs 0271, 2968, 3837, 5635 in c3-c6): 0.0623 ng/mL and 0.117 ng/mL and 0.0991 ng/mL
Plasma concentrations for RTX ([2]; Group 1 High Dose, 25 μg total F/Sc nerve block, Predose, dogs 0271, 2968, 3837, 5635 in c3-c6): BQL (BQL—Below the Quantifiable Limit < 50.0 pg/mL)
Plasma concentrations for RTX ([2]; Group 2 Low Dose, 6.25 μg total F/Sc nerve block, 0 min, dogs 2561, 3743, 4681, 5686 in c3-c6): BQL (BQL—Below the Quantifiable Limit < 50.0 pg/mL)
Plasma concentrations for RTX ([2]; Group 2 Low Dose, 6.25 μg total F/Sc nerve block, 5 min, dogs 2561, 3743, 4681, 5686 in c3-c6): BQL (BQL—Below the Quantifiable Limit < 50.0 pg/mL)
Plasma concentrations for RTX ([2]; Group 2 Low Dose, 6.25 μg total F/Sc nerve block, 15 min, dogs 2561, 3743, 4681, 5686 in c3-c6): BQL (BQL—Below the Quantifiable Limit < 50.0 pg/mL)
Plasma concentrations for RTX ([2]; Group 2 Low Dose, 6.25 μg total F/Sc nerve block, 45 min, dogs 2561, 3743, 4681, 5686 in c3-c6): BQL (BQL—Below the Quantifiable Limit < 50.0 pg/mL)
Plasma concentrations for RTX ([2]; Group 2 Low Dose, 6.25 μg total F/Sc nerve block, 60 min, dogs 2561, 3743, 4681, 5686 in c3-c6): BQL (BQL—Below the Quantifiable Limit < 50.0 pg/mL)
Plasma concentrations for RTX ([2]; Group 2 Low Dose, 6.25 μg total F/Sc nerve block, 6 h, dogs 2561, 3743, 4681, 5686 in c3-c6): BQL (BQL—Below the Quantifiable Limit < 50.0 pg/mL)
Plasma concentrations for RTX ([2]; Group 2 Low Dose, 6.25 μg total F/Sc nerve block, 8 h, dogs 2561, 3743, 4681, 5686 in c3-c6): BQL (BQL—Below the Quantifiable Limit < 50.0 pg/mL)
Plasma concentrations for RTX ([2]; Group 2 Low Dose, 6.25 μg total F/Sc nerve block, Predose, dogs 2561, 3743, 4681, 5686 in c3-c6): BQL (BQL—Below the Quantifiable Limit < 50.0 pg/mL)
Plasma concentrations for RTX ([2]; Group 3 Local, 50 μg on bone incision, 0 min, dogs 2272, 3007, 3722, 9501 in c3-c6): BQL (BQL—Below the Quantifiable Limit < 50.0 pg/mL)
Plasma concentrations for RTX ([2]; Group 3 Local, 50 μg on bone incision, 5 min, dogs 2272, 3007, 3722, 9501 in c3-c6): BQL (BQL—Below the Quantifiable Limit < 50.0 pg/mL)
Plasma concentrations for RTX ([2]; Group 3 Local, 50 μg on bone incision, 15 min, dogs 2272, 3007, 3722, 9501 in c3-c6): BQL (BQL—Below the Quantifiable Limit < 50.0 pg/mL)
Plasma concentrations for RTX ([2]; Group 3 Local, 50 μg on bone incision, 45 min, dogs 2272, 3007, 3722, 9501 in c3-c6): BQL (BQL—Below the Quantifiable Limit < 50.0 pg/mL)
Plasma concentrations for RTX ([2]; Group 3 Local, 50 μg on bone incision, 60 min, dogs 2272, 3007, 3722, 9501 in c3-c6): BQL (BQL—Below the Quantifiable Limit < 50.0 pg/mL)
Plasma concentrations for RTX ([2]; Group 3 Local, 50 μg on bone incision, 90 min, dogs 2272, 3007, 3722, 9501 in c3-c6): BQL (BQL—Below the Quantifiable Limit < 50.0 pg/mL)
Plasma concentrations for RTX ([2]; Group 3 Local, 50 μg on bone incision, 2 h, dogs 2272, 3007, 3722, 9501 in c3-c6): BQL (BQL—Below the Quantifiable Limit < 50.0 pg/mL)
Plasma concentrations for RTX ([2]; Group 3 Local, 50 μg on bone incision, 3 h, dogs 2272, 3007, 3722, 9501 in c3-c6): BQL (BQL—Below the Quantifiable Limit < 50.0 pg/mL)
Plasma concentrations for RTX ([2]; Group 3 Local, 50 μg on bone incision, 4 h, dogs 2272, 3007, 3722, 9501 in c3-c6): BQL (BQL—Below the Quantifiable Limit < 50.0 pg/mL)
Plasma concentrations for RTX ([2]; Group 3 Local, 50 μg on bone incision, 6 h, dogs 2272, 3007, 3722, 9501 in c3-c6): BQL (BQL—Below the Quantifiable Limit < 50.0 pg/mL)
Plasma concentrations for RTX ([2]; Group 3 Local, 50 μg on bone incision, 8 h, dogs 2272, 3007, 3722, 9501 in c3-c6): BQL (BQL—Below the Quantifiable Limit < 50.0 pg/mL)
Plasma concentrations for RTX ([2]; Group 3 Local, 50 μg on bone incision, Predose, dogs 2272, 3007, 3722, 9501 in c3-c6): BQL (BQL—Below the Quantifiable Limit < 50.0 pg/mL)
Plasma concentration ([2]; Subject 2968 (group 1), 2 hour timepoint): 1790
RTX plasma levels ([2]; all dogs that received the local application (50 μg)): below the quantifiable limit at all timepoints
concentration at 90 min ([2]; female, beagle, dog, plasma, 6.25 μg, Group 2 Low Dose, 6.25 μg total F/Sc nerve block, 90 min, dogs 2561, 3743, 4681, 5686 in c3-c6): 0.085 ng/mL
concentration at 2 h ([2]; female, beagle, dog, plasma, 6.25 μg, Group 2 Low Dose, 6.25 μg total F/Sc nerve block, 2 h, dogs 2561, 3743, 4681, 5686 in c3-c6): 0.0607 ng/mL
concentration at 3 h ([2]; female, beagle, dog, plasma, 6.25 μg, Group 2 Low Dose, 6.25 μg total F/Sc nerve block, 3 h, dogs 2561, 3743, 4681, 5686 in c3-c6): 0.0847 ng/mL
concentration at 4 h ([2]; female, beagle, dog, plasma, 6.25 μg, Group 2 Low Dose, 6.25 μg total F/Sc nerve block, 4 h, dogs 2561, 3743, 4681, 5686 in c3-c6): 0.0506 ng/mL
concentration at 0 min ([2]; female, beagle, dog, plasma, 25 μg, Group 1 High Dose, 25 μg total F/Sc nerve block, 0 min, dogs 0271, 2968, 3837, 5635 in c3-c6): 0.397 ng/mL
concentration at 5 min ([2]; female, beagle, dog, plasma, 25 μg, Group 1 High Dose, 25 μg total F/Sc nerve block, 5 min, dogs 0271, 2968, 3837, 5635 in c3-c6): 0.1 ng/mL
concentration at 15 min ([2]; female, beagle, dog, plasma, 25 μg, Group 1 High Dose, 25 μg total F/Sc nerve block, 15 min, dogs 0271, 2968, 3837, 5635 in c3-c6): 0.0964 ng/mL
concentration at 90 min ([2]; female, beagle, dog, plasma, 25 μg, Group 1 High Dose, 25 μg total F/Sc nerve block, 90 min, dogs 0271, 2968, 3837, 5635 in c3-c6): 0.0551 ng/mL
concentration at 6 h ([2]; female, beagle, dog, plasma, 25 μg, Group 1 High Dose, 25 μg total F/Sc nerve block, 6 h, dogs 0271, 2968, 3837, 5635 in c3-c6): 0.105 ng/mL
concentration at 8 h ([2]; female, beagle, dog, plasma, 25 μg, Group 1 High Dose, 25 μg total F/Sc nerve block, 8 h, dogs 0271, 2968, 3837, 5635 in c3-c6): 0.0656 ng/mL
